The target in series [1] is T1, GSK 3α enzyme isoform (Homo sapiens, UniProt P49840).
T1 construct: purchased Life Technologies
As to the kind of experiment: GSK 3α enzyme inhibition (Z-LYTE FRET). Type of series: biochemical. Particulars: Table 2A; read-out: IC50 Values for Enzyme Inhibition GSK3α. In outline:
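Z-LYTE FRET kinase assay: GSK3α protein (500 ng/mL stock) preincubated with compound (0.0012–40 μg/mL stocks) for 2 h at RT. FRET peptide (8 μM stock) and ATP (40 μM stock) added for 1 h at RT, then protease development for 1 h. Phosphorylation taken from the coumarin/fluorescein emission ratio.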

Series [2] has as its target T2, Hck (Homo sapiens, UniProt P08631).
T2 construct: purchased Life Technologies
Description: Hck enzyme inhibition (Z-LYTE FRET). Particulars: Table 2A. The series is classed as biochemical. In outline:
(§1)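 Z-LYTE readout: coumarin-to-fluorescein ratio after 1 h protease cleavage of unphosphorylated peptide. Kinase reactions ran 1 h at RT with ATP stock at 800 μM (c-Src) or 60 μM (Hck, Syk), following 2 h compound preincubation over 0.0012–40 μg/mL; enzyme stocks 1000/1400/2000 ng/mL.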

In series [3] the target is T3, Syk (Homo sapiens, UniProt P43405).
T3 construct: purchased Life Technologies
Description: Syk enzyme inhibition (Z-LYTE FRET). Type of series: biochemical. The note with it: Table 2A. In short, it runs like this:
as §1

The subject of series [4] is IL-8 release in d-U937 cells. As to the kind of experiment: LPS-induced IL-8 release in d-U937 cells. The series is classed as cell-based. The note with it: Homo sapiens, dU937, LPS 0.1 μg/mL 4 h. In outline:
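Sandwich ELISA of supernatants measured TNFα and IL-8 after 4 h LPS challenge (0.1 μg/mL, E. coli O111:B4). Before the challenge, PMA-differentiated U937 macrophage-like cells received compound for 2 h. REC50 derived from concentration-response curves, with inhibition relative to vehicle control.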

In series [5] the target is T4, p38 MAPKα isoform (MAPK14) (Homo sapiens, UniProt Q16539).
T4 construct: purchased Life Technologies
Description: p38 MAPKα enzyme inhibition (Z-LYTE FRET). Type of series: biochemical. Particulars: Table 2A; read-out: IC50 Values for Enzyme Inhibition p38 MAPKα. In short, it runs like this:
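Activity was measured indirectly as phosphorylation of a MAPKAP-K2-derived FRET peptide. Enzyme (added at 40 ng/mL) was preincubated 2 h at RT with compound (added solutions 40–0.0012 μg/mL).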

Series [6] deals with d-U937 cells. Description: Cell viability: MTT assay in differentiated U937 cells. Type of series: cell-based, human. The note with it: 10 μg/mL. In outline: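 Viability loss, calculated against 0.5% DMSO vehicle (gains reported negative), was measured by MTT reduction (1 h) and A550 after DMSO solubilisation. Compound exposure of d-U937 cells was 10 μg/mL final, for 24 h in 10% FCS or 4 h in 5% FCS RPMI1640.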

The structures appear in SMILES notation.

T4 sequence (Q16539 whole entry, canonical isoform): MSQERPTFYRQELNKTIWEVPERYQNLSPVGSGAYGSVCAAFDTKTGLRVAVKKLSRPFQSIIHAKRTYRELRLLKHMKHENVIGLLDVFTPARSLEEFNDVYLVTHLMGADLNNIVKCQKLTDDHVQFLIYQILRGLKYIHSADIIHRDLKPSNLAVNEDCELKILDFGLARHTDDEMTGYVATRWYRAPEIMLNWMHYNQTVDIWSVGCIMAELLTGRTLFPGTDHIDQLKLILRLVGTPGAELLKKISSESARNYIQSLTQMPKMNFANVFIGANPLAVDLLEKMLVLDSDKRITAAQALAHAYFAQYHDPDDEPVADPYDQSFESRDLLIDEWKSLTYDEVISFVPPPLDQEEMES
T2 sequence (P08631 22-526): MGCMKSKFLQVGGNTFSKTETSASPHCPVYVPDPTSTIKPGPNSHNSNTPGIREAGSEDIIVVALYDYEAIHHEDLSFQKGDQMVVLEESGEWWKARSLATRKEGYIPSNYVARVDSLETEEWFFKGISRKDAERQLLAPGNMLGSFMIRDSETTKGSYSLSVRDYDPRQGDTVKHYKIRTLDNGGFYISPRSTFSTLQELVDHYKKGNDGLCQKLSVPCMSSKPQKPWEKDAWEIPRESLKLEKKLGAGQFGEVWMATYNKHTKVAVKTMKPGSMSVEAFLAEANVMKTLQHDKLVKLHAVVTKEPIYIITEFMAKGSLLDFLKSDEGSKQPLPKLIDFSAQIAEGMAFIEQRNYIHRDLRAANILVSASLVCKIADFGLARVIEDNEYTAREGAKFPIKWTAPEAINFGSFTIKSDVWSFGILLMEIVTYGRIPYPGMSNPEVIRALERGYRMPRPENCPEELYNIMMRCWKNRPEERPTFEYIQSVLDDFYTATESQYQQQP
T1 sequence (P49840 whole entry, canonical isoform): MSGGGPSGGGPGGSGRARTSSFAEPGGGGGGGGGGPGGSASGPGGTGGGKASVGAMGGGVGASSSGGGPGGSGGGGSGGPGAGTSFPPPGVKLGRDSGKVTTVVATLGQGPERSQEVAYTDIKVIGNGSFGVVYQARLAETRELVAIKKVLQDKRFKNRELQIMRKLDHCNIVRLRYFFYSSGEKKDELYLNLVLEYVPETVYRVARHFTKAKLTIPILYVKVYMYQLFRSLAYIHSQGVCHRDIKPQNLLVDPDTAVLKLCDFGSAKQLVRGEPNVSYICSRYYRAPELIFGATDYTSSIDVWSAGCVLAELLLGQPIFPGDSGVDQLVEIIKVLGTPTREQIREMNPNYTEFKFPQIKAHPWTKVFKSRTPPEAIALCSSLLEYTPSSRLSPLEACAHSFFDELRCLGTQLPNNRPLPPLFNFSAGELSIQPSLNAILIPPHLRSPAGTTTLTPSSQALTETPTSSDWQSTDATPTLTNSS

As for `CC(C)c1ccc(-n2nc(C(C)(C)C)cc2NC(=O)Nc2ccc(OCc3ccnc(Nc4cnccn4)c3)c3ccccc23)cc1` [Example 41], the IC50 in series [1] amounted to 3570 nM; in series [2], 1430 nM; in series [3], 6130 nM; in series [4], 43.8 nM; in series [5], 189 nM. Moreover, the “MTT Assay Cell viability at time point indicated in d-U937 Cells, 4 h” value (“MTT Assay Cell viability … in d-U937 Cells, 4 h” below) in series [6] was “− (−ve and +ve indicate the value is below and above, respectively, the no significant effect threshold defined as 30% inhibition at 10 μg/mL at the time point indicated)”. Also, the “MTT Assay Cell viability at time point indicated in d-U937 Cells, 24 h” value (“MTT Assay Cell viability … 24 h” for short) in series [6] is “− (−ve and +ve indicate the value is below and above, respectively, the no significant effect threshold defined as 30% inhibition at 10 μg/mL at the time point indicated)”.

For the compound `CC(=O)NCc1cnc(Nc2cc(COc3ccc(NC(=O)Nc4cc(C(C)(C)C)nn4-c4ccc(C)cc4)c4ccccc34)ccn2)cn1` [Example 6, N-((5-((4-(((4-(3-(3-(tert-butyl)-1-(p-tolyl)-1H-pyrazol-5-yl)ureido)naphthalen-1-yl)oxy)methyl)pyridin-2-yl)amino)pyrazin-2-yl)methyl)acetamide], the IC50 in series [1] is 922 nM; in series [2], 10 nM; in series [3], 7520 nM; in series [4], 90.7 nM; in series [5], 3 nM. For the same compound, in series [6], the “MTT Assay Cell viability … in d-U937 Cells, 4 h” value was “− (−ve and +ve indicate the value is below and above, respectively, the no significant effect threshold defined as 30% inhibition at 10 μg/mL at the time point indicated)”. In addition, in series [6], the “MTT Assay Cell viability … 24 h” value is “− (−ve and +ve indicate the value is below and above, respectively, the no significant effect threshold defined as 30% inhibition at 10 μg/mL at the time point indicated)”.

As for `Cc1ccc(-n2nc(C(C)(C)C)cc2NC(=O)Nc2ccc(OCc3ccnc(Nc4cnccn4)c3)c3ccccc23)cc1C` [Example 51], the IC50 was above 16300 nM in series [1]; 36 nM in series [2]; above 16300 nM in series [3]; 25.7 nM in series [4]; 14 nM in series [5]. For the same compound, the “MTT Assay Cell viability … in d-U937 Cells, 4 h” value in series [6] is “− (−ve and +ve indicate the value is below and above, respectively, the no significant effect threshold defined as 30% inhibition at 10 μg/mL at the time point indicated)”. The “MTT Assay Cell viability … 24 h” value in series [6] was “− (−ve and +ve indicate the value is below and above, respectively, the no significant effect threshold defined as 30% inhibition at 10 μg/mL at the time point indicated)”.

For `Cc1ccc(-n2nc(C(C)(C)C)cc2NC(=O)Nc2ccc(OCc3ccnc(Nc4cnc(C(=O)N5CCOCC5)cn4)c3)c3ccccc23)cc1` [Example 35], the IC50 in series [1] was 3430 nM; in series [2], 42 nM; in series [3], above 14000 nM; in series [4] it was 102 nM; in series [5], 9 nM. Also, the “MTT Assay Cell viability … in d-U937 Cells, 4 h” value in series [6] was “− (−ve and +ve indicate the value is below and above, respectively, the no significant effect threshold defined as 30% inhibition at 10 μg/mL at the time point indicated)”. The “MTT Assay Cell viability … 24 h” value in series [6] was “− (−ve and +ve indicate the value is below and above, respectively, the no significant effect threshold defined as 30% inhibition at 10 μg/mL at the time point indicated)”.

With `Cc1ccc(-n2nc(C(C)(C)C)cc2NC(=O)Nc2ccc(OCc3ccnc(Nc4cnc(C)cn4)c3)c3ccccc23)cc1` [Example 19], the IC50 in series [1] is above 16300 nM; in series [2] it was 53 nM; in series [3], above 16300 nM; in series [4] it was 1.4 nM; in series [5] it was 13 nM. The “MTT Assay Cell viability … in d-U937 Cells, 4 h” value in series [6] was “− (−ve and +ve indicate the value is below and above, respectively, the no significant effect threshold defined as 30% inhibition at 10 μg/mL at the time point indicated)”. Moreover, in series [6], the “MTT Assay Cell viability … 24 h” value is “− (−ve and +ve indicate the value is below and above, respectively, the no significant effect threshold defined as 30% inhibition at 10 μg/mL at the time point indicated)”.

`Cc1ccc(-n2nc(C(C)(C)C)cc2NC(=O)Nc2ccc(OCc3ccnc(Nc4cnccn4)c3)c3ccccc23)s1` [Example 13]: the 50% inhibitory concentration (IC50) is above 14700 nM in series [1]; 49 nM in series [2]; above 16500 nM in series [3]; 7.8 nM in series [4]; 9 nM in series [5]. Further, the “MTT Assay Cell viability … in d-U937 Cells, 4 h” value in series [6] was “− (−ve and +ve indicate the value is below and above, respectively, the no significant effect threshold defined as 30% inhibition at 10 μg/mL at the time point indicated)”. In addition, the “MTT Assay Cell viability … 24 h” value in series [6] is “− (−ve and +ve indicate the value is below and above, respectively, the no significant effect threshold defined as 30% inhibition at 10 μg/mL at the time point indicated)”.

As for `COc1ccc(-n2nc(C(C)(C)C)cc2NC(=O)Nc2ccc(OCc3ccnc(Nc4cnc(CO)cn4)c3)c3ccccc23)cc1` [Example 23], the IC50 in series [1] amounted to 626 nM; in series [2] it was 13 nM; in series [3] it was 2150 nM; in series [4] it was 6.2 nM; in series [5] it was 4 nM. Moreover, the “MTT Assay Cell viability … in d-U937 Cells, 4 h” value in series [6] is “− (−ve and +ve indicate the value is below and above, respectively, the no significant effect threshold defined as 30% inhibition at 10 μg/mL at the time point indicated)”. In series [6], the “MTT Assay Cell viability … 24 h” value was “+ (−ve and +ve indicate the value is below and above, respectively, the no significant effect threshold defined as 30% inhibition at 10 μg/mL at the time point indicated)”.

Regarding `COc1ccc(-n2nc(C(C)(C)C)cc2NC(=O)Nc2ccc(OCc3ccnc(Nc4cnccn4)c3)c3ccccc23)cc1Cl` [Example 46], the half-inhibitory concentration (IC50) was found to be 7050 nM in series [1]; 68 nM in series [2]; 6700 nM in series [3]; 268 nM in series [4]; 85 nM in series [5]. The “MTT Assay Cell viability … in d-U937 Cells, 4 h” value in series [6] was “− (−ve and +ve indicate the value is below and above, respectively, the no significant effect threshold defined as 30% inhibition at 10 μg/mL at the time point indicated)”. For the same compound, in series [6], the “MTT Assay Cell viability … 24 h” value was “− (−ve and +ve indicate the value is below and above, respectively, the no significant effect threshold defined as 30% inhibition at 10 μg/mL at the time point indicated)”.

Take `Cc1ccc(-n2nc(C(C)(C)C)cc2NC(=O)Nc2ccc(OCc3ccnc(Nc4cncc(CO)n4)c3)c3ccccc23)cc1` [Example 21]: the 50% inhibitory concentration (IC50) is 1580 nM in series [1]; 12 nM in series [2]; above 15900 nM in series [3]; 7.9 nM in series [4]; 5 nM in series [5]. In addition, the “MTT Assay Cell viability … in d-U937 Cells, 4 h” value in series [6] is “− (−ve and +ve indicate the value is below and above, respectively, the no significant effect threshold defined as 30% inhibition at 10 μg/mL at the time point indicated)”. For the same compound, the “MTT Assay Cell viability … 24 h” value in series [6] was “− (−ve and +ve indicate the value is below and above, respectively, the no significant effect threshold defined as 30% inhibition at 10 μg/mL at the time point indicated)”.

The record behind these values is US11142515B2, “Pyrazolyl-ureas as kinase inhibitors” (RESPIVERT LIMITED, priority 2014, dated 2021).
